Laboratory results reported in US20220313640A1 (Concert Pharmaceuticals, Inc., priority 2019, published 2022).
Read-outs that look alike come from different tables or passages of the source. Values belong to the molecule of their own block, whether it stands above or below them.

What was measured:
[1] = Pharmacokinetic profile of Compound 100 versus non-deuterated D-serine in male Sprague-Dawley rats, 150 mg/kg PO; type: in vivo; conditions: fasted, plasma, mean
Description: (§1) The pharmacokinetic profile of Compound 100 was investigated in male Sprague-Dawley rats compared with that of non-deuterated D-serine. […] Plasma was collected and analyzed for Compound 100 and non-deuterated D-Serine. Additional blood was collected and analyzed for the full clinical chemistry profile.

[2] = Pharmacokinetic profile of Compound 100 in male Sprague-Dawley rats: plasma, hippocampus and cortex concentration after 30 mg/kg PO; type: in vivo; conditions: fasted, 1 hr post dose, mean
Experimental: The mean plasma, hippocampus, and cortex concentrations at 1 hour were 19200 ng/mL, 674 ng/g, and 754 ng/g, respectively. The mean plasma, hippocampus, and cortex concentrations at 6 hours were 1780 ng/mL, 1385 ng/g, and 936 ng/g, respectively.

[3] = Single Ascending Dose (SAD) study plasma PK in healthy volunteers; type: in vivo, human; conditions: for half-life / AUC(0-inf) / Cmax / Tmax: human, plasma; for Tmax: median
Experimental: (§2) The 0.5, 2, 3, and 4 g doses were evaluated under fasted conditions (after an overnight fast) while the 1 g dose was evaluated under both fasted and fed conditions (within 30 minutes of consumption of a meal) in a crossover design. […] Blood samples for PK analysis were obtained at several time points after dose administration. Safety assessments included monitoring of adverse events and clinical laboratory testing including monitoring of kidney function.

[4] = Safety and tolerability in SAD and MAD studies; type: in vivo, human
Experimental: as §2, with “function. Neurocognitive effects of CTP-692 using CogScreen® were also explored.” for “function.”

[5] = target: T1, human NMDAR subunits GluN1 and GluN2A (Homo sapiens, UniProt Q05586); experiment: NMDA receptor activation in automated patch clamp system (ScreenPatch), HEK293 cells; type: cell-based; conditions: 0.003 to 10 μM, Compound 100 versus D-serine
T1 construct: expressed in transfected cells; host or cells: HEK293
Experimental: Peak current and steady state current were measured. The activity at the NMDA receptor was indistinguishable for the two compounds.

[6] = Randomized single dose crossover plasma PK of Compound 100 versus D-serine in healthy volunteers; type: in vivo, human; conditions: for Tmax / AUC(0-inf) / Cmax / half-life: human, plasma; for Tmax / AUC(0-inf) / Cmax / half-life / CL/F: single 0.25 g oral solution, fasted, N = 11; for AUC(0-inf) / Cmax / half-life / CL/F: mean
Experimental: Thirteen healthy volunteers between the ages of 18 to 55 were enrolled in the study. […] Period 1 dosing occurred within 14 days of screening. […] Similarly, in Period 2, the 2 subjects in the sentinel group received the alternate treatment after a 4-day washout and approximately 2 days prior to the remaining subjects receiving their Period 2 dose. […] Water consumption was restricted from 1 hour prior to dosing until 1 hour after dosing. Subjects fasted for approximately 3 hours after dosing and remained upright or semi-supine during this period. A meal was provided 3-4 hours after the dose. Meal times and contents were standardized until the last blood sample was collected for PK assessments. […] Plasma samples were stored in labeled tubes at approximately -80° C.

[7] = Nephrotoxicity comparison of Compound 100 and non-deuterated D-serine at doses from 150 mg/kg to 750 mg/kg; type: in vivo, rats; conditions: for changes in BUN or creatinine: doses from 150 mg/kg to 750 mg/kg PO
[8] = Safety and tolerability in single dose crossover study in healthy volunteers; type: in vivo, human; conditions: single 0.25 g oral dose
Description: Thirteen healthy volunteers between the ages of 18 to 55 were enrolled in the study.
Period 1 dosing occurred within 14 days of screening.

[9] = Multiple Ascending Dose (MAD) study plasma PK, 7 consecutive days; conditions: for AUC(0-inf) / AUC(0-t) / Cmax / Tmax: human, plasma, po
Description: The caloric content of the meal was in accordance with the FDA guidance for food-effect studies.

[10] = Nephrotoxicity of Compound 100 and non-deuterated D-serine in male Sprague-Dawley rats, 150 mg/kg PO (BUN, creatinine, GGT); type: in vivo
Description: as §1

[11] = Pharmacokinetics of non-deuterated D-serine in male Sprague-Dawley rats, 300 mg/kg PO; type: in vivo; conditions: rat, mean
Experimental: (§3) The hippocampus, cortex and plasma were collected and analyzed. Additional blood was collected and were analyzed for the full clinical chemistry profile. Urine was also collected and examined for glucose and total protein. […] The mean plasma, hippocampus, and cortex concentration at 1 hour are 19200 ng/mL, 674 ng/g, and 754 ng/g; respectively. The mean plasma, hippocampus, and cortex concentrations at 8 hours were 11250 ng/mL, 17725 ng/g, and 11875 ng/g, respectively. […] Blood urea nitrogen and creatinine levels were elevated.

[12] = Pharmacokinetics of deuterated and non-deuterated D-serine in male Sprague Dawley rats, PO 10 mg/kg; type: in vivo; conditions: rat, 0.5% Methylcellulose, plasma
Experimental: Three rats were used for each group. Blood was collected at the following time points: for IV dosing: pre-dose, 0.05, 0.167, 0.5, 1, 2, 4, 6, 8 and 12 hours post-dose; for PO dosing: pre-dose, 0.25, 0.5, 1, 2, 4, 6, 8 and 12 hours post-dose PO. Urine was collected at pre-dose (minimum 12 hours), 0-6, 6-12 and 12-24 hours. Plasma samples were analyzed and quantified for dosed compound LC-MS/MS.

[13] = Nephrotoxicity dose response of non-deuterated D-serine in male Sprague-Dawley rats, 30-300 mg/kg PO; type: in vivo; conditions: 24 hr samples at the 150 and 300 mg/kg doses, compared to control and reference values
Description: (§4) The pharmacokinetic profile of non-deuterated D-serine was investigated in male Sprague-Dawley rats. […] Plasma was collected and analyzed for the non-deuterated D-serine. Additional blood was collected and analyzed for the full clinical chemistry profile.

[14] = Nephrotoxicity of non-deuterated D-serine at 300 mg/kg in male Sprague-Dawley rats (clinical chemistry, urine); type: in vivo; conditions: 300 mg/kg PO
Experimental: as §3

[15] = Pharmacokinetics dose response of non-deuterated D-serine in male Sprague-Dawley rats, 30-300 mg/kg PO; type: in vivo; conditions: rat, plasma; for Tmax: po
Description: as §4

[16] = po, 0.5 g, 0.5 g single oral dose, fasted, arithmetic mean
[17] = po, 1 g, 1 g (fed) single oral dose, arithmetic mean
[18] = po, 1 g, 1 g single oral dose, fasted, arithmetic mean
[19] = po, 2 g, 2 g single oral dose, fasted, arithmetic mean
[20] = po, 3 g, 3 g single oral dose, fasted, arithmetic mean
[21] = po, 4 g, 4 g single oral dose, fasted, arithmetic mean
[22] = dose escalation 150 mg/kg to 750 mg/kg
[23] = 150 mg/kg PO, fasted, mean (CV %)

- AUCinf [1]: 383 µg·h/mL
- Cmax [1]: 186000 ng/mL
- Tmax [1]: 0.667 h
- Cortex concentration [2]: 754 ng/g
- Hippocampus concentration [2]: 674 ng/g
- Plasma concentration [2]: 19200 ng/mL
- CL/F ([3]; 0.5 g single oral dose, fasted, arithmetic mean): 6.17 L/h
- CL/F ([3]; 1 g (fed) single oral dose, arithmetic mean): 5.99 L/h
- CL/F ([3]; 1 g single oral dose, fasted, arithmetic mean): 6.28 L/h
- CL/F ([3]; 2 g single oral dose, fasted, arithmetic mean): 6.56 L/h
- CL/F ([3]; 3 g single oral dose, fasted, arithmetic mean): 6.68 L/h
- CL/F ([3]; 4 g single oral dose, fasted, arithmetic mean): 6.69 L/h
- half-life ([3]; oral, SAD and MAD studies, human plasma, read-out: terminal t1/2 (converted)): ~19 h
- AUC(0-inf) [3, 16]: 82.2 µg·h/mL
- Cmax [3, 16]: 11000 ng/mL
- half-life ([3]; po, 0.5 g, 0.5 g single oral dose, fasted, arithmetic mean, read-out: t1/2 (converted)): 15.9 h
- Tmax ([3]; po, 0.5 g, 0.5 g single oral dose, fasted): 1 h
- AUC(0-inf) [3, 17]: 173 µg·h/mL
- Cmax [3, 17]: 15300 ng/mL
- half-life ([3]; po, 1 g, 1 g (fed) single oral dose, arithmetic mean, read-out: t1/2 (converted)): 17.9 h
- Tmax ([3]; po, 1 g, 1 g (fed) single oral dose): 2 h
- AUC(0-inf) [3, 18]: 164 µg·h/mL
- Cmax [3, 18]: 22300 ng/mL
- half-life ([3]; po, 1 g, 1 g single oral dose, fasted, arithmetic mean, read-out: t1/2 (converted)): 19.2 h
- Tmax ([3]; po, 1 g, 1 g single oral dose, fasted): 1 h
- AUC(0-inf) [3, 19]: 315 µg·h/mL
- Cmax [3, 19]: 46300 ng/mL
- half-life ([3]; po, 2 g, 2 g single oral dose, fasted, arithmetic mean, read-out: t1/2 (converted)): 20.2 h
- Tmax ([3]; po, 2 g, 2 g single oral dose, fasted): 1 h
- AUC(0-inf) [3, 20]: 489 µg·h/mL
- Cmax [3, 20]: 69100 ng/mL
- half-life ([3]; po, 3 g, 3 g single oral dose, fasted, arithmetic mean, read-out: t1/2 (converted)): 20.6 h
- Tmax ([3]; po, 3 g, 3 g single oral dose, fasted): 1 h
- AUC(0-inf) [3, 21]: 618 µg·h/mL
- Cmax [3, 21]: 96500 ng/mL
- half-life ([3]; po, 4 g, 4 g single oral dose, fasted, arithmetic mean, read-out: t1/2 (converted)): 18.4 h
- Tmax ([3]; po, 4 g, 4 g single oral dose, fasted): 1 h
- activity at the NMDA receptor (peak current and steady state current) [5]: indistinguishable
- Tmax [6]: 1.5 h
- AUC(0-inf) [6]: 38.7 µg·h/mL
- Cmax [6]: 4550 ng/mL
- half-life [6]: 18.3 h
- plasma exposure compared to D-serine ([6]; single 0.25 g oral dose): increased plasma exposure
- CL/F [6]: 6.6 L/h
- Accumulation ([9]; following 7 consecutive days of administration): minimal to modest
- dose-exposure relationship ([9]; following single and multiple doses (at Day 7)): linear
- AUC(0-inf) ([9]; 1 g): 263 µg·h/mL
- AUC(0-t) ([9]; 1 g): 175 µg·h/mL
- Cmax ([9]; 1 g): 25300 ng/mL
- Tmax ([9]; 1 g): 1.5 h
- AUC(0-inf) ([9]; 2 g): 522 µg·h/mL
- AUC(0-t) ([9]; 2 g): 333 µg·h/mL
- Cmax ([9]; 2 g): 52000 ng/mL
- Tmax ([9]; 2 g): 1 h
- AUC(0-inf) ([9]; 4 g): 911 µg·h/mL
- AUC(0-t) ([9]; 4 g): 539 µg·h/mL
- Cmax ([9]; 4 g): 70800 ng/mL
- Tmax ([9]; 4 g): 2 h
Structure (SMILES): [2H][C@@](N)(CO)C(=O)O [Compound 100, (2R)-2-amino-2-deutero-3-hydroxy-propanoic acid]
- effects on kidney function (serum and urine kidney function parameters) ([4]; SAD and MAD studies): no apparent Compound 100-related effects on kidney function
- effects on other clinical laboratory parameters ([4]; SAD and MAD studies): no clinically significant Compound 100-related effects
- most common treatment-related adverse event ([4]; SAD and MAD studies): headache
- neurocognitive effects (CogScreen) ([4]; SAD and MAD studies, exploratory): no evidence of adverse effects on neurocognitive functioning
- tolerability ([4]; SAD and MAD studies, healthy volunteers): well-tolerated
- Compound 100-related adverse events ([4]; highest once-daily dose of 4 g, both studies): no Compound 100-related adverse events were reported
- exposure as measured by AUC and Cmax, compared with non-deuterated D-serine [7, 22]: greater
- gross signs of nephrotoxicity [7, 22]: not Compound 100
- changes in BUN or creatinine [7]: minimal changes
- adverse events related to Compound 100 [8]: mild headache (1 subject) and fatigue (2 subjects)
- serious adverse events [8]: no serious adverse events were reported
- tolerability [8]: generally well tolerated
- levels of biomarkers of nephrotoxicity [10]: did not increase

- AUC(0-inf) ([1]; male, Sprague-Dawley, rat): 349 µg·h/mL
- Cmax ([1]; male, Sprague-Dawley, rat, read-out: Cmax): 180000 ng/mL
- concentration at 8 h ([11]; cortex, endogenous level not subtracted, read-out: Cortex concentration): 11900 ng/g
- Tmax ([11]; fasted, plasma): 0.5 h
- AUC(0-inf) ([11]; fasted, plasma, endogenous level subtracted): 500 µg·h/mL
- concentration at 8 h ([11]; hippocampus, endogenous level not subtracted, read-out: Hippocampus concentration): 17700 ng/g
- concentration at 8 h ([11]; plasma, endogenous level subtracted, read-out: Plasma concentration): 11200 ng/mL
- Tmax [12]: 0.417 h
- activity at the NMDA receptor (peak current and steady state current) [5]: indistinguishable
- Tmax [6]: 1 h
- AUC(0-inf) [6]: 32.5 µg·h/mL
- Cmax [6]: 4090 ng/mL
- half-life [6]: 17.2 h
- CL/F [6]: 7.9 L/h
- AUC(0-inf) [15, 23]: 349 µg·h/mL
- Cmax [15, 23]: 180000 ng/mL
- Tmax ([15]; 30 mg/kg, 30 mg/kg PO, fasted, mean): 0.5 h
- Tmax ([15]; 75 mg/kg, 75 mg/kg PO, fasted, mean): 0.5 h
- Tmax ([15]; 100 mg/kg, 100 mg/kg PO, fasted, mean): 0.5 h
- Tmax ([15]; 150 mg/kg, 150 mg/kg PO, fasted, mean): 0.3 h
- Tmax ([15]; 300 mg/kg, 300 mg/kg PO, fasted, mean): 0.5 h
- Tmax ([15]; 300 mg/kg, all doses 30, 75, 100, 150, and 300 mg/kg PO): 0.3 to 0.5 h
Structure (SMILES): NC(CO)C(=O)O (stereo in doubt) [Non-deuterated D-Serine, D-serine]
- creatinine level [13]: Elevated levels
- gamma glutamyl transferase (GGT) level [13]: Elevated levels
- urea nitrogen level [13]: Elevated levels
- Blood urea nitrogen level [14]: elevated
- creatinine level [14]: elevated
- glucose in urine [14]: presence of glucose was observed
- gross signs of nephrotoxicity [7, 22]: only observed in rats receiving non-deuterated D-serine
- changes in BUN or creatinine [7]: increasingly elevated levels
- levels of biomarkers of nephrotoxicity [10]: caused an increase
- blood urea nitrogen (BUN) level ([10]; 8 hr and 24 hr serum samples): Elevated levels
- creatinine level ([10]; 24 hr serum samples): Elevated levels
- gamma glutamyl transferase (GGT) level ([10]; 24 hr serum samples): Elevated levels
